Assay results published in the NIST ThermoML archive (doi:10.1021/je700234e).
± gives the expanded uncertainty stated by the source.

Legend:
[1] = Crystal; DTA
[2] = Molar enthalpy of transition or fusion; settings: Crystal; DSC

O=S1(=O)c2ccccc2-c2ccccc21 [dibenzothiophene sulfone]
Normal melting temperature [1]: 236.1 ± 0.5 °C | Molar enthalpy of transition or fusion [2]: 27.2 ± 0.82 kJ/mol
